Source: paper PMC9230797, “Integration of a Physiologically Based Pharmacokinetic and Pharmacodynamic Model for Tegoprazan and Its Metabolite: Application for Predicting Food Effect and Intragastric pH Alterations” (Pharmaceutics, 2022)
Values joined by “and” are separate entries in the source; they are usually repeats but may differ in a detail not shown here. Equal values may be shown once.

Legend:
CYP2C19 = biological target: T1, CYP2C19 (Homo sapiens, UniProt P33261); assay: Intrinsic clearance using recombinant CYPs: CYP2C19; format: in vitro ADME
T1 construct: purchased Corning Life Sciences (Woburn, MA, USA)
Method: The elimination profiles of tegoprazan and M1 were assessed using rCYPs. All the assay procedures were performed according to the manufacturer’s instructions. Master mix (1.399 mL), containing the NADPH-generating system, 3.3 mM of glucose 6-phosphate, PBS buffer, deionized water, and each rCYP (25 pmol/μL of CYP2C8, 2C19, and 2E1 and 50 pmol/μL of CYP3A4, 2C9, and 2D6), was added to a microtube and pre-incubated at 37 °C for 5 min. Next, 1 μM tegoprazan and M1 were added and incubated at 37 °C for 0, 5, 10, 20, 30, 45, and 60 min. A total of 100 μL of the sample, incubated for predefined duration, was transferred to a fresh e-tube. Next, 200 μL of acetonitrile containing tegoprazan-d6 (0.5 μM) was added, vortexed for 5 min, and centrifuged at 16,200× g and 4 °C for 10 min. The concentrations of the remaining tegoprazan and M1 were determined by LC–MS/MS. All experiments were performed in duplicate. CLint,rCYP levels were assessed using the results of the disappearance test. […] The CLint resulting from rCYPs was calculated using Equation (3):(3) CLint,rCYP(μL/min/pmol CYP)=0.693/t1/2×1400/concentration of CYP
Caco-2 and rCYP samples were quantified using LC-MS/MS (UPLC® I-class coupled with TQ-MS (Waters, Milford, MA, USA). The mobile phase comprised (a) 0.1% formic acid and (b) acetonitrile containing 0.1% formic acid. Gradient elution at a flow rate of 0.3 mL/min was applied. Tegoprazan, M1, and the internal standard (tegoprazan-d6) were optimized in electrospray ionization positive mode. Acetonitrile with 0.1 μM of tegoprazan-d6 was added to the collected Caco-2 or rCYP samples. Then, processed samples were centrifuged at 13,000× g for 20 min. After centrifugation, 100 μL of supernatant was transferred to an LC-MS vial and analyzed using LC-MS/MS. […] The stability of tegoprazan was evaluated, and it satisfied the acceptance criteria (coefficient of variances was within 15%) under variable conditions including reinjection, processed sample stability (PSS), and short-term stability for the stock and sample.

recombinant CYP2C8 = biological target: T2, recombinant CYP2C8 (Homo sapiens, UniProt P10632); assay: Intrinsic clearance using recombinant CYPs: CYP2C8; format: in vitro ADME; conditions: 1 μM
T2 construct: purchased Corning Life Sciences (Woburn, MA, USA)
T2 sequence (P10632 1-490): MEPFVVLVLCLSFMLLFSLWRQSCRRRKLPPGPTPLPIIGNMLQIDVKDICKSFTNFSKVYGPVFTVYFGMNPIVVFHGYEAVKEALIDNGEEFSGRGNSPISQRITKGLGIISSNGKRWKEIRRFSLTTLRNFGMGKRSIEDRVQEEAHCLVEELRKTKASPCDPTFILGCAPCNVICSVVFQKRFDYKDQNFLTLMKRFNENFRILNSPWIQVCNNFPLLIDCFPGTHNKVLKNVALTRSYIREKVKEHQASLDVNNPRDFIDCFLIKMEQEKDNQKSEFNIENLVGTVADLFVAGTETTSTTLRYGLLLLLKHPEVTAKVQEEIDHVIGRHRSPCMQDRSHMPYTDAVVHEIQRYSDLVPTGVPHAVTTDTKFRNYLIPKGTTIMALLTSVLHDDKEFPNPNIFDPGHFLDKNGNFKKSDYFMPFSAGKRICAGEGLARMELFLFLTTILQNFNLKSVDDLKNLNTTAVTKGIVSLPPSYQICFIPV
Method: The elimination profiles of tegoprazan and M1 were assessed using rCYPs. All the assay procedures were performed according to the manufacturer’s instructions. Master mix (1.399 mL), containing the NADPH-generating system, 3.3 mM of glucose 6-phosphate, PBS buffer, deionized water, and each rCYP (25 pmol/μL of CYP2C8, 2C19, and 2E1 and 50 pmol/μL of CYP3A4, 2C9, and 2D6), was added to a microtube and pre-incubated at 37 °C for 5 min. Next, 1 μM tegoprazan and M1 were added and incubated at 37 °C for 0, 5, 10, 20, 30, 45, and 60 min. A total of 100 μL of the sample, incubated for predefined duration, was transferred to a fresh e-tube. Next, 200 μL of acetonitrile containing tegoprazan-d6 (0.5 μM) was added, vortexed for 5 min, and centrifuged at 16,200× g and 4 °C for 10 min. The concentrations of the remaining tegoprazan and M1 were determined by LC–MS/MS. All experiments were performed in duplicate. CLint,rCYP levels were assessed using the results of the disappearance test. The terminal slope of the linear regression was used to determine the CLint for tegoprazan. The CLint resulting from rCYPs was calculated using Equation (3):(3) CLint,rCYP(μL/min/pmol CYP)=0.693/t1/2×1400/concentration of CYP […]

[1] = Clinical PK of single and repeated oral doses of tegoprazan in healthy adult males (literature); format: in vivo, human; conditions: 100 mg once daily; from values of ref 15
[2] = ADAM model prediction of regional absorption, gut metabolism, surface solubility and residence time; set-up: species or system human; conditions: at 30 min after a high-fat meal
Method: The absorption of tegoprazan was applied to the advanced dissolution, absorption, and metabolism (ADAM) model, and the diffusion layer model (DLM) built into SimCYP® was applied to the considered formulation and pH-dependent solubility of tegoprazan. The permeability of tegoprazan was determined by a Caco-2 permeability assay and optimized by parameter estimation. Caco-2 permeability was optimized such that the predicted concentration–time profiles were fitted to clinical study data. The metabolite was generated by the metabolism of the parent drug; therefore, absorption was not considered.
Postprandial PK profiles were predicted using an established model. Concentration–time profiles were obtained following a single oral dose (50 mg) of tegoprazan in the fasting state or 30 min after a high-fat diet. The predicted AUClast, Cmax, and Tmax values were compared with those of a previous clinical study.

[3] = set-up: method as in PMID 31437865; conditions: cited from earlier work
CYP3A4 [4] = test system: CYP3A4; set-up: method as in ref 18 = [18]; PMID 34575565; doi:10.3390/pharmaceutics13091489; 18. Yoon D.Y. Lee S. Jang I.-J. Kim M. Lee H. Kim S. Kim B. Song G.S. Rhee S.-J. Prediction of Drug–Drug Interaction Potential of Tegoprazan Using Physiologically Based Pharmacokinetic Modeling and Si; conditions: cited from earlier work
[5] = set-up: method as in PMID 33131095; conditions: 100 mg repeatedly; 10 healthy Chinese subjects; cited from earlier work
CYP3A4 [6] = test system: CYP3A4; set-up: method as in ref 17, 18 = [17]; 17. Tegoprazan (K-CAB) Available online: https://pdfslide.net/reader/f/tegoprazan-k-cab-2019-02-08-tegoprazan-metabolic-pathway-75-by-cyp3a4 (accessed on 10 December 2020) || [18]; PMID 34575565; doi:10.3390/pharmaceutics13091489; 18. Yoon D.Y. Lee S. Jang I.-J. Kim M. Lee H. Kim S. Kim B. Song G.S. Rhee S.-J. Prediction of Drug–Drug Interaction Potential of Tegoprazan Using Physiologically Based Pharmacokinetic Modeling and Si; conditions: cited from earlier work

T1 sequence (P33261 whole entry): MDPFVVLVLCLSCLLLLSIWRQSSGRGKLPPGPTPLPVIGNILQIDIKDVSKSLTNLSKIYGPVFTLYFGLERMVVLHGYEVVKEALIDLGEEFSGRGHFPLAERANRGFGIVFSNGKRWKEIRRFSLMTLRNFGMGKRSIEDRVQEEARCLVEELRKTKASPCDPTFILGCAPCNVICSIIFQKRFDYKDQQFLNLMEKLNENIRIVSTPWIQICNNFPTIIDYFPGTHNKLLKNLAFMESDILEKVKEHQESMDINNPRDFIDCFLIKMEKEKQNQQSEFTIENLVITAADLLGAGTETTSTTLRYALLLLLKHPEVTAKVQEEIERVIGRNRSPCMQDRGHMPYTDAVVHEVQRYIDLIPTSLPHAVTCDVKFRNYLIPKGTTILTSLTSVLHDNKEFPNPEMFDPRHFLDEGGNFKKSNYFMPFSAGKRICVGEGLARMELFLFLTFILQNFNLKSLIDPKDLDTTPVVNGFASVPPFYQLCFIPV

**Q.** Which “CLint, CYP2C19” value (CYP2C19; 1 μM, experimental (initial model value)) does the source give for `Cc1nc2cc(C(=O)N(C)C)cc(O[C@H]3CCOc4cc(F)cc(F)c43)c2[nH]1` [tegoprazan] here?
**A.** The value was 0.61 µL/min/pmol and 0.614 µL/min/pmol.

**Q.** And the half-life at 1 μM (CYP2C19; human, recombinant CYP2C19, rCYP2C19)?
**A.** The half-life at 1 μM was 1.05 h.

**Q.** And the “Slope (disappearance)” value (CYP2C19; rCYP2C19, 1 μM)?
**A.** Its value is -0.011.

**Q.** And the “CLint, CYP2C8” value (recombinant CYP2C8; experimental data)?
**A.** Its value is 0.06 µL/min/pmol and 0.060 µL/min/pmol.

**Q.** And the “Slope (disappearance)” value (recombinant CYP2C8; rCYP2C8)?
**A.** The value was 0.002.

**Q.** What about the “decrease of observed Cmax at Day 7 compared with Day 1” value [1] of the same compound?
**A.** Its value is “approximately 40.2%”.

**Q.** What about the “increase of predicted absorbed fraction in the duodenum, fed vs fasting” value [2] of the same compound?
**A.** The value was “approximately 72.7%”.

**Q.** What about the “increase of predicted mean residence time in the stomach, fed vs fasting” value [2] of the same compound?
**A.** Its value is “approximately 170.4%”.

**Q.** What about the “increase of predicted surface solubility in the duodenum, fed vs fasted” value [2] of the same compound?
**A.** The value was 40.3%.

**Q.** What about the “increase of predicted surface solubility in the stomach, fed vs fasted” value [2] of the same compound?
**A.** The value was 14.8%.

**Q.** What about the “observed Cmax, Day 7” value ([3]; 100 mg once daily for 7 days) of the same compound?
**A.** The value was 845.2 ± 40.7 ng/mL.

**Q.** And the “observed Cmax, Day 1” value ([3]; 100 mg once daily)?
**A.** The value was 1413.3 ± 24.7 ng/mL.

**Q.** What about the “predicted systemic exposure change” value (CYP3A4 [4]; co-administered with the maximum recommended dose of clarithromycin or ketoconazole vs without CYP3A4 modulator) of the same compound?
**A.** The value was “increased by approximately three-fold”.

**Q.** And the “predicted decrease of systemic exposure” value (CYP3A4 [4]; with the CYP3A4 inducer rifampicin)?
**A.** The value was “up to 30%”.

**Q.** And the “AUC and CL on Day 7 compared with Day 1” value [5]?
**A.** Its value is “did not show a significant difference”.

**Q.** And the “Vd/F on Day 7 compared with Day 1” value [5]?
**A.** Its value is “increased significantly”.

**Q.** And the “metabolic fraction by CYP3A4 of total hepatic clearance” value (CYP3A4 [6])?
**A.** The value was “approximately 75%”.
